Data published in patent US11427558B1, “Indazoles and azaindazoles as LRRK2 inhibitors” (ESCAPE Bio, Inc., priority 2019, dated 2022).

Legend:
[1] = biological target: Recombinant G2019S-LRRK2 protein (Homo sapiens (Human), UniProt Q5S007, G2019S); experiment: LRRK2 kinase activity, LanthaScreen TR-FRET assay (G2019S); type: biochemical; details: LRRKtide 400 nM, 25 μM ATP, 60 min
Summary of the method: (§1)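 Recombinant human wild-type or G2019S LRRK2 phosphorylated fluorescein-labelled LRRKtide (ERM-based) with ATP and serially diluted compound for 60 min at room temperature.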

[2] = biological target: Recombinant wild type LRRK2 protein (Homo sapiens (Human), UniProt Q5S007); experiment: LRRK2 kinase activity, LanthaScreen TR-FRET assay (wild type); type: biochemical; details: LRRKtide 400 nM, 25 μM ATP, 60 min; read-out: LRRK2 WT IC50
Summary of the method: as §1

Recombinant G2019S-LRRK2 protein, sequence (Q5S007 whole entry G2019S): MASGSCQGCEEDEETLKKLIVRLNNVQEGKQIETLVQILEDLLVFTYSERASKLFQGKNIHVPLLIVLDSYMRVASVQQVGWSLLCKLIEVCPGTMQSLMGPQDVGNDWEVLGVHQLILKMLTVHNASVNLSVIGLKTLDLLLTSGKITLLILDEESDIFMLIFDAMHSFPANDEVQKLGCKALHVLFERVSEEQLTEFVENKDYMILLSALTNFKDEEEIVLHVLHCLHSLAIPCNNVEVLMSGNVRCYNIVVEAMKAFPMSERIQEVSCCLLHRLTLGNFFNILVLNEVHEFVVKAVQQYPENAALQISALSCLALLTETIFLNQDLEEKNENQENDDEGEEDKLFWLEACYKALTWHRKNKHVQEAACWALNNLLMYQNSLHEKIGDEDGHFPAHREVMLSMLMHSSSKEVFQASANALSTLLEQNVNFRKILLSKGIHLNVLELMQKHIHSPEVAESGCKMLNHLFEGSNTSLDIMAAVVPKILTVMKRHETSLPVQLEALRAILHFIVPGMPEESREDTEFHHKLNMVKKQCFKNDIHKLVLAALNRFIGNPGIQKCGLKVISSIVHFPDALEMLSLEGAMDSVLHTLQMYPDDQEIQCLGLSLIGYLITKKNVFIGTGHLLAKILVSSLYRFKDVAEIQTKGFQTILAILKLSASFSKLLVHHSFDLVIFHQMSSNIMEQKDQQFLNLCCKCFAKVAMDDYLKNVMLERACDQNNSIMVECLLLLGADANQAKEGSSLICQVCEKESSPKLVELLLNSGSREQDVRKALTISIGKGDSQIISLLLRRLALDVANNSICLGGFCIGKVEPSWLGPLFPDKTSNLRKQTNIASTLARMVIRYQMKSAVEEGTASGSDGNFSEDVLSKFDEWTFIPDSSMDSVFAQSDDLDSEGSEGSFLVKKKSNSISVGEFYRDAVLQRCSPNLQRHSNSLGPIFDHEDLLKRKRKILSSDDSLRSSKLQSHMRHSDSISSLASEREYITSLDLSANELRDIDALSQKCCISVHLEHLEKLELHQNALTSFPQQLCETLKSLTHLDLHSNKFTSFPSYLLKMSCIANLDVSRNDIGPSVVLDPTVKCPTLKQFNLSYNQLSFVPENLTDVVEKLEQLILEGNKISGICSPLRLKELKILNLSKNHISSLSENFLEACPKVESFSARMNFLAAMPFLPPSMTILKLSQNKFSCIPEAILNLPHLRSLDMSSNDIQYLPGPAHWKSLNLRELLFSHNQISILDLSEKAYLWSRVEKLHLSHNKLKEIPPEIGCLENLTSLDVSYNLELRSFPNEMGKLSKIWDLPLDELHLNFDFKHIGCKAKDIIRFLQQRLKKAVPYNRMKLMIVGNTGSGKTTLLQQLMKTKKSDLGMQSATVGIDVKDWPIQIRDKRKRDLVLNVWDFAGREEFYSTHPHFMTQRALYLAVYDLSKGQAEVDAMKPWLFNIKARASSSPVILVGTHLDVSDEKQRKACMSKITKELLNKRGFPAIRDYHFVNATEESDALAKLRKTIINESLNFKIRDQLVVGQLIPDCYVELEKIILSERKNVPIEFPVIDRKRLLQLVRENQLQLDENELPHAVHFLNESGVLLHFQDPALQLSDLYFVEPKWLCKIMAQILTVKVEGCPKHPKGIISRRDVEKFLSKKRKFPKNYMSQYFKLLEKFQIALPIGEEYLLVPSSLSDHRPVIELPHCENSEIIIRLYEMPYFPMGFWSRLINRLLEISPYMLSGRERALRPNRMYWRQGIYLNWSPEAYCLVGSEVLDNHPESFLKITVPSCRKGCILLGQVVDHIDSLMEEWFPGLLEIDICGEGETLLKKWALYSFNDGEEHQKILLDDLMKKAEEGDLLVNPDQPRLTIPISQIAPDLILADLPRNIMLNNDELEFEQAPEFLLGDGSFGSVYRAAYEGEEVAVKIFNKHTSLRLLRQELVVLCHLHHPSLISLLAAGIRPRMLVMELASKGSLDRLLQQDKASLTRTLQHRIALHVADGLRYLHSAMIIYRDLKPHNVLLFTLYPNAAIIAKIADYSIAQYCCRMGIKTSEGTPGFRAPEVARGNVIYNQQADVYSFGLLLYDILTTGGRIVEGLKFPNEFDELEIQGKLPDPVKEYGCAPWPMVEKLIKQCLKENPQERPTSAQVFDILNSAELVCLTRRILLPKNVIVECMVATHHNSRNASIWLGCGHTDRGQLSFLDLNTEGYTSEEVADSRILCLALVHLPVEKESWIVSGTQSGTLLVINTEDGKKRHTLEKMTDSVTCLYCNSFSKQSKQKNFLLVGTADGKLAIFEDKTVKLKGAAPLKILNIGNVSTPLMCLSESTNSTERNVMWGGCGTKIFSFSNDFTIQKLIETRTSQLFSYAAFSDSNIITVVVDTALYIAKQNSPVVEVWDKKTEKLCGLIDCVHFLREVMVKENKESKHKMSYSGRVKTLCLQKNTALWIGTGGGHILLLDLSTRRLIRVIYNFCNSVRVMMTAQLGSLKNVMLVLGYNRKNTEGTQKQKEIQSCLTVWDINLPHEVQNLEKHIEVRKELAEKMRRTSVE
Recombinant wild type LRRK2 protein, sequence (Q5S007 whole entry): as the sequence (Q5S007 whole entry G2019S) above, with S2019G counted along it

| Compound | IC50 [1] [nM] | IC50 [2] [nM] |
| --- | --- | --- |
| Cc1c(C(=O)Nc2ccc3[nH]nc(-c4cnoc4)c3c2)nc(Cl)c(C#N)c1C [Example 216, 6-Chloro-5-cyano-N-(3-(isoxazol-4-yl)-1H-indazol-5-yl)-3,4-dimethylpicolinamide] | < 100 | < 100 |
| Cc1c(C#N)cnc(C(=O)Nc2ccc3[nH]nc(-c4cnn(C(C)C)c4)c3c2)c1C [Example 217, 5-Cyano-N-(3-(1-isopropyl-1H-pyrazol-4-yl)-1H-indazol-5-yl)-3,4-dimethylpicolinamide] | < 100 | < 100 |
| N#Cc1cnc(C(=O)Nc2ccc3[nH]nc(-c4cnoc4)c3c2)c2c1CCC2 [Example 218, 4-cyano-N-(3-(isoxazol-4-yl)-1H-indazol-5-yl)-6,7-dihydro-5H-cyclopenta[c]pyridine-1-carboxamide] | < 100 | 1000 to 10000 |
| COc1cc(-c2n[nH]c3ccc(NC(=O)c4ncc(C#N)c(C)c4C)cc23)cc(C)n1 [Example 219, 5-Cyano-N-(3-(2-methoxy-6-methylpyridin-4-yl)-1H-indazol-5-yl)-3,4-dimethylpicolinamide] | < 100 | < 100 |
| N#Cc1cccc(C(=O)Nc2ccc3[nH]nc(-c4cnoc4)c3c2)c1Cl [Example 220, 2-Chloro-3-cyano-N-(3-(isoxazol-4-yl)-1H-indazol-5-yl)benzamide] | < 100 | < 100 |
| Cc1c(C#N)cnc(C(=O)Nc2ccc3[nH]nc(-c4cnn(C5COC5)c4)c3c2)c1C [Example 221, 5-Cyano-3,4-dimethyl-N-(3-(1-(oxetan-3-yl)-1H-pyrazol-4-yl)-1H-indazol-5-yl)picolinamide] | < 100 | < 100 |
| Cc1nc(C(=O)Nc2ccc3[nH]nc(-c4cncs4)c3c2)c(C)c(C)c1C#N [Example 222, 5-Cyano-3,4,6-trimethyl-N-(3-(thiazol-5-yl)-1H-indazol-5-yl)picolinamide] | < 100 | < 100 |
| Cc1c(C#N)cnc(C(=O)Nc2ccc3[nH]nc(C4CC4)c3c2)c1C [Example 223, 5-Cyano-N-(3-cyclopropyl-1H-indazol-5-yl)-3,4-dimethylpicolinamide] | < 100 | 1000 to 10000 |
| Cn1cc(C(=O)Nc2ccc3[nH]nc(-c4cnco4)c3c2)cc(C#N)c1=O [Example 224, 5-cyano-1-methyl-N-(3-(oxazol-5-yl)-1H-indazol-5-yl)-6-oxo-1,6-dihydropyridine-3-carboxamide] | < 100 | < 100 |
| CC(C)c1c(C#N)cccc1C(=O)Nc1ccc2[nH]nc(-c3cnco3)c2c1 [Example 225, 3-Cyano-2-isopropyl-N-(3-(oxazol-5-yl)-1H-indazol-5-yl)benzamide] | < 100 | < 100 |
| COc1c(C#N)cnc(C(=O)Nc2ccc3[nH]nc(-c4cnoc4)c3c2)c1C [Example 226, 5-Cyano-N-(3-(isoxazol-4-yl)-1H-indazol-5-yl)-4-methoxy-3-methylpicolinamide] | < 100 | < 100 |
| Cc1c(C#N)cnc(C(=O)Nc2ccc3[nH]nc(-c4cncs4)c3c2)c1C [Example 227, 5-Cyano-3,4-dimethyl-N-(3-(thiazol-5-yl)-1H-indazol-5-yl)picolinamide] | < 100 | < 100 |
| COc1c(C#N)ccnc1C(=O)Nc1ccc2[nH]nc(-c3cnoc3)c2c1 [Example 228, 4-Cyano-N-(3-(isoxazol-4-yl)-1H-indazol-5-yl)-3-methoxypicolinamide] | < 100 | 100 to 1000 |
| Cc1cc(-c2n[nH]c3ccc(NC(=O)c4ncc(C#N)c(C)c4C)cc23)on1 [Example 229, 5-Cyano-3,4-dimethyl-N-(3-(3-methylisoxazol-5-yl)-1H-indazol-5-yl)picolinamide] | < 100 | < 100 |
| Cc1c(C#N)cnc(C(=O)Nc2ccc3[nH]nc(-c4ccncn4)c3c2)c1C [Example 230, 5-Cyano-3,4-dimethyl-N-(3-(pyrimidin-4-yl)-1H-indazol-5-yl)picolinamide] | < 100 | 100 to 1000 |
| CCc1c(C#N)ccc(F)c1C(=O)Nc1ccc2[nH]nc(-c3cnco3)c2c1 [Example 231, 3-Cyano-2-ethyl-6-fluoro-N-(3-(oxazol-5-yl)-1H-indazol-5-yl)benzamide] | < 100 | < 100 |
| CCc1c(C(=O)Nc2ccc3[nH]nc(-c4cnco4)c3c2)ccnc1C#N [Example 232, 2-Cyano-3-ethyl-N-(3-(oxazol-5-yl)-1H-indazol-5-yl)isonicotinamide] | < 100 | < 100 |
| Cc1c(C#N)cnc(C(=O)Nc2ccc3[nH]nc(/C=C/C4CC4)c3c2)c1C [Example 233, (E)-5-Cyano-N-(3-(2-cyclopropylvinyl)-1H-indazol-5-yl)-3,4-dimethylpicolinamide] | < 100 | < 100 |
| COc1c(C#N)ccc(C)c1C(=O)Nc1ccc2[nH]nc(-c3cnco3)c2c1 [Example 234, 3-Cyano-2-methoxy-6-methyl-N-(3-(oxazol-5-yl)-1H-indazol-5-yl)benzamide] | < 100 | < 100 |

| Compound | IC50 [1] [nM] | IC50 [2] [nM] |
| --- | --- | --- |
| Cc1cc(-c2n[nH]c3ccc(NC(=O)c4ncc(C#N)cc4C)cc23)on1 [Example 235, 5-Cyano-3-methyl-N-(3-(3-methylisoxazol-5-yl)-1H-indazol-5-yl)picolinamide] | < 100 | < 100 |
| Cc1ccc(C#N)c(F)c1C(=O)Nc1ccc2[nH]nc(-c3cnoc3)c2c1 [Example 236, 3-Cyano-2-fluoro-N-(3-(isoxazol-4-yl)-1H-indazol-5-yl)-6-methylbenzamide] | < 100 | < 100 |
| Cc1nccc(-c2n[nH]c3ccc(NC(=O)c4ncc(C#N)c(C)c4C)cc23)n1 [Example 237, 5-Cyano-3,4-dimethyl-N-(3-(2-methylpyrimidin-4-yl)-1H-indazol-5-yl)picolinamide] | < 100 | < 100 |
| Cc1c(C#N)cnc(C(=O)Nc2cc3c(-c4cnco4)n[nH]c3cn2)c1C [Example 238, 5-Cyano-3,4-dimethyl-N-(3-(oxazol-5-yl)-1H-pyrazolo[3,4-c]pyridin-5-yl)picolinamide] | < 100 | 100 to 1000 |
| Cc1c(C#N)nn(C)c1C(=O)Nc1ccc2[nH]nc(-c3cnco3)c2c1 [Example 239, 3-Cyano-1,4-dimethyl-N-(3-(oxazol-5-yl)-1H-indazol-5-yl)-1H-pyrazole-5-carboxamide] | 100 to 1000 | < 100 |
| Cc1c(C#N)cnc(C(=O)Nc2ccc3[nH]nc(-c4cn(C)nn4)c3c2)c1C [Example 240, 5-Cyano-3,4-dimethyl-N-(3-(1-methyl-1H-1,2,3-triazol-4-yl)-1H-indazol-5-yl)picolinamide] | < 100 | 100 to 1000 |
| Cc1cc(C#N)cnc1C(=O)Nc1ccc2[nH]nc(-c3cn(C)nn3)c2c1 [Example 241, 5-Cyano-3-methyl-N-(3-(1-methyl-1H-1,2,3-triazol-4-yl)-1H-indazol-5-yl)picolinamide] | 100 to 1000 | 100 to 1000 |
| Cc1cc(C#N)cnc1C(=O)Nc1ccc2[nH]nc(-n3ccoc3=O)c2c1 [Example 242, 5-Cyano-3-methyl-N-(3-(2-oxooxazol-3(2H)-yl)-1H-indazol-5-yl)picolinamide] | < 100 | 1000 to 10000 |
| CC(C)=Cc1n[nH]c2ccc(NC(=O)c3ncc(C#N)c(C)c3C)cc12 [Example 243, 5-Cyano-3,4-dimethyl-N-(3-(2-methylprop-1-en-1-yl)-1H-indazol-5-yl)picolinamide] | < 100 | 100 to 1000 |
| Cc1c(C#N)cnc(C(=O)Nc2ccc3[nH]nc(/C=C/c4ccccc4)c3c2)c1C [Example 244, (E)-5-Cyano-3,4-dimethyl-N-(3-styryl-1H-indazol-5-yl)picolinamide] | < 100 | < 100 |
| C/C=C/c1n[nH]c2ccc(NC(=O)c3ncc(C#N)c(C)c3C)cc12 [Example 245, (E)-5-cyano-3,4-dimethyl-N-(3-(prop-1-en-1-yl)-1H-indazol-5-yl)picolinamide] | < 100 | 100 to 1000 |
| Cc1c(C#N)cn(C)c1C(=O)Nc1ccc2[nH]nc(-c3cnoc3)c2c1 [Example 246, 4-Cyano-N-(3-(isoxazol-4-yl)-1H-indazol-5-yl)-1,3-dimethyl-1H-pyrrole-2-carboxamide] | < 100 | < 100 |
| Cn1cc(C#N)cc1C(=O)Nc1ccc2[nH]nc(-c3cnoc3)c2c1 [Example 247, 4-Cyano-N-(3-(isoxazol-4-yl)-1H-indazol-5-yl)-1-methyl-1H-pyrrole-2-carboxamide] | < 100 | < 100 |
| Cc1c(C#N)cnc(C(=O)Nc2ccc3[nH]nc(/C=C/c4ccccn4)c3c2)c1C [Example 248, (E)-5-Cyano-3,4-dimethyl-N-(3-(2-(pyridin-2-yl)vinyl)-1H-indazol-5-yl)picolinamide] | < 100 | < 100 |
| COc1cc(C(=O)Nc2ccc3[nH]nc(-c4cnco4)c3c2)ncc1C#N [Example 249, 5-Cyano-4-methoxy-N-(3-(oxazol-5-yl)-1H-indazol-5-yl)picolinamide] | < 100 | 100 to 1000 |
| C=C(C)c1cc(C#N)cnc1C(=O)Nc1ccc2[nH]nc(-c3cnco3)c2c1 [Example 250, 5-Cyano-N-(3-(oxazol-5-yl)-1H-indazol-5-yl)-3-(prop-1-en-2-yl)picolinamide] | < 100 | < 100 |
| CC(C)c1cc(C#N)cnc1C(=O)Nc1ccc2[nH]nc(-c3cnco3)c2c1 [Example 251, 5-Cyano-3-isopropyl-N-(3-(oxazol-5-yl)-1H-indazol-5-yl)picolinamide] | < 100 | 100 to 1000 |
| Cc1c(C#N)cnc(C(=O)Nc2ccc3[nH]nc([C@@H]4CC4c4ccccc4)c3c2)c1C (stereo partly drawn) [Example 252, 5-Cyano-3,4-dimethyl-N-(3-((1R)-2-phenylcyclopropyl)-1H-indazol-5-yl)picolinamide] | < 100 | 100 to 1000 |
